Test systems include A498 renal; A549 NSCLC; HCT-15 colon; HL-60(TB) leukemia; HOP-62 NSCLC; KM12 colon; NCI-H460 lung; SF-539 CNS; SK-MEL-28 melanoma; SK-OV-3 ovarian.
What all share (experiment): NCI tumour cell line growth inhibition, 48 h

SMILES strings stand for the structures. “And” between values parts separate entries of the source, which are not always exact repeats. Equal values may be shown once.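 96-well plates; 48 h exposure; 5 concentrations. Endpoints by linear interpolation between flanking doses. Not reached: highest tested concentration assigned. Here, GI50 denotes the concentration required for 50% inhibition of growth. TGI is the concentration that stops growth completely.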

As to `CCN(CC)CCC(=O)Nc1ccc(Cn2nnc3c2C(=O)c2nnn(Cc4ccc(NC(=O)CCN(CC)CC)cc4)c2C3=O)cc1`, the GI50 in the assay with A498 renal is 2.45 µM; with A549 NSCLC it was 1.51 µM; with HCT-15 colon, 26.7 µM; with HL-60(TB) leukemia, 0.228 µM; with HOP-62 NSCLC it was 1.75 µM; with KM12 colon, 0.728 µM. Besides, the GI50 in the assay on NCI-H460 lung was 0.356 µM; with SF-539 CNS it was 0.295 µM; with SK-MEL-28 melanoma, 1.09 µM; in the assay with SK-OV-3 ovarian, 2.08 µM. Further, the TGI in the assay on A498 renal was 9.49 µM; in the assay with A549 NSCLC, 3.4 µM; in the assay with HCT-15 colon it was more than 100 µM; in the assay on HL-60(TB) leukemia, 0.628 µM; with HOP-62 NSCLC it was 3.42 µM; with KM12 colon it was 2.46 µM. Besides, the TGI in the assay on NCI-H460 lung amounted to 1.46 µM; with SF-539 CNS, 0.821 µM; in the assay on SK-MEL-28 melanoma, 2.82 µM; in the assay with SK-OV-3 ovarian it was 5.88 µM.
For `N#Cc1c2c(c(N=[N+]=[N-])n3c1nc1ccccc13)CCCC2`, the TGI came out at 6.1 µM in the assay on A498 renal; 17 µM in the assay with A549 NSCLC; 4.38 µM in the assay with HCT-15 colon; 8.6 µM in the assay on HL-60(TB) leukemia; 31 µM with HOP-62 NSCLC; 5.53 µM in the assay with KM12 colon. The TGI came out at 3.82 µM with NCI-H460 lung, 3.66 µM in the assay with SF-539 CNS, 14 µM with SK-MEL-28 melanoma and 3.64 µM with SK-OV-3 ovarian.
For `CCOC(=O)/C=C1\Nc2ccccc2C(c2ccccc2)=NC1OC(C)=O` (stereo not given), the TGI with A498 renal, in the assay on A549 NSCLC, with HCT-15 colon, in the assay with HL-60(TB) leukemia, with HOP-62 NSCLC and with KM12 colon was more than 100 µM in each case. The TGI with NCI-H460 lung, with SF-539 CNS, in the assay with SK-MEL-28 melanoma and with SK-OV-3 ovarian was more than 100 µM in each case.
For `CN1CC2(CCCCC2)C(O)C12C=CCCC2` (stereo not given), the TGI with A498 renal, in the assay on A549 NSCLC, with HCT-15 colon, in the assay with HL-60(TB) leukemia, with HOP-62 NSCLC and with KM12 colon was more than 100 µM in each case. The TGI in the assay with SF-539 CNS, in the assay on SK-MEL-28 melanoma and in the assay with SK-OV-3 ovarian was more than 100 µM throughout.
For `COc1ccc(S(=O)(=O)N/N=C/C(=O)O)cc1`, the TGI was 1210 µM with A498 renal; more than 1250 µM in the assay on A549 NSCLC; 1080 µM in the assay with HCT-15 colon; 463 µM in the assay on HL-60(TB) leukemia; 1130 µM in the assay with HOP-62 NSCLC; more than 1170 µM in the assay on KM12 colon. Also, the TGI was more than 1230 µM in the assay with NCI-H460 lung, 1080 µM in the assay with SF-539 CNS, more than 1250 µM with SK-MEL-28 melanoma and more than 1250 µM in the assay with SK-OV-3 ovarian.
As to `O=C1c2c(O)cccc2C(C(=O)CCCCC(=O)C2c3cccc(O)c3C(=O)c3c(O)cccc32)c2cccc(O)c21`, the GI50 was 2.14 µM in the assay on A498 renal; 1.1 µM in the assay on A549 NSCLC; 1.75 µM in the assay on HCT-15 colon; 0.744 µM with HL-60(TB) leukemia; 1.05 µM in the assay with HOP-62 NSCLC; 0.884 µM in the assay with KM12 colon. Moreover, the GI50 was 1.01 µM with SF-539 CNS, 1.54 µM in the assay with SK-MEL-28 melanoma and 0.921 µM in the assay with SK-OV-3 ovarian. Moreover, the TGI was 5.27 µM and 7.36 µM in the assay with A498 renal; 1.06 µM and 2.43 µM with A549 NSCLC; 2.6 µM and 5.12 µM in the assay on HCT-15 colon; 1.14 µM and 1.67 µM in the assay on HL-60(TB) leukemia; 1.66 µM and 2.52 µM in the assay on HOP-62 NSCLC; 1.31 µM and 1.68 µM in the assay with KM12 colon. The TGI in the assay with NCI-H460 lung is 1.35 µM and 1.65 µM; in the assay on SF-539 CNS it was 0.873 µM and 2.02 µM; with SK-MEL-28 melanoma, 2.5 µM and 3.27 µM; with SK-OV-3 ovarian, 1.14 µM and 1.75 µM.
As to `CC[C@]12C=CCN3CC[C@]4(C(=C(C(=O)OC)C1)Nc1cc(O)ccc14)[C@@H]32`, the GI50 with A498 renal was 18.1 µM; with A549 NSCLC, 23.3 µM; in the assay with HCT-15 colon it was 14.6 µM; in the assay with HL-60(TB) leukemia, 25.8 µM; in the assay on HOP-62 NSCLC it was 17.2 µM; with KM12 colon, 13.1 µM. Also, the GI50 with NCI-H460 lung is 18.9 µM; in the assay on SF-539 CNS, 15.1 µM; in the assay on SK-MEL-28 melanoma it was 17 µM. Moreover, the TGI with A498 renal is 36.5 µM; in the assay on A549 NSCLC it was 70.8 µM; with HCT-15 colon it was 36.5 µM; with HL-60(TB) leukemia, 72.5 µM; with HOP-62 NSCLC, 38.9 µM; with KM12 colon it was 30.6 µM. Further, the TGI turned out to be 38.5 µM in the assay on NCI-H460 lung, 30.1 µM with SF-539 CNS and 42.5 µM with SK-MEL-28 melanoma.
As for `O=c1c2ccccc2nc(-c2ccccc2)n1NCC1(O)OCC(O)C(O)C1O` (stereo not given), the TGI in the assay with A498 renal, with A549 NSCLC, in the assay on HCT-15 colon, in the assay with HL-60(TB) leukemia, with HOP-62 NSCLC and with KM12 colon was more than 100 µM in each case. Moreover, the TGI in the assay on NCI-H460 lung, with SF-539 CNS, in the assay on SK-MEL-28 melanoma and in the assay on SK-OV-3 ovarian was more than 100 µM each time.
For the compound `CO[C@H]1C=C[C@]23c4cc5c(cc4CN(CC2O)[C@@H]3C1)OCO5` (stereo not given in full), the TGI in the assay with A498 renal was 9.66 µM; with A549 NSCLC, 44.9 µM; in the assay with HCT-15 colon, 24.9 µM; in the assay with HL-60(TB) leukemia, 0.32 µM; with KM12 colon, 28.3 µM; in the assay with NCI-H460 lung, 36.1 µM. For the same compound, the TGI stood at 14.6 µM in the assay with SF-539 CNS, 54.9 µM in the assay with SK-MEL-28 melanoma and 3.3 µM in the assay on SK-OV-3 ovarian.
For `COc1ccc2nc3ccc(OC)cc3c(SCCCN)c2c1`, the GI50 in the assay with A498 renal is 19.4 µM; in the assay with A549 NSCLC, 12.9 µM; in the assay with HCT-15 colon, 3.17 µM; with HL-60(TB) leukemia, 4.34 µM; with HOP-62 NSCLC, 20.3 µM; with KM12 colon, 4.52 µM. For the same compound, the GI50 in the assay with NCI-H460 lung is 8.66 µM; with SF-539 CNS, 13.7 µM; with SK-MEL-28 melanoma, 1.99 µM; in the assay on SK-OV-3 ovarian, 14.2 µM. Moreover, the TGI amounted to 56.5 µM in the assay on A498 renal; 38.5 µM with A549 NSCLC; 20.2 µM with HCT-15 colon; 9.49 µM with HL-60(TB) leukemia; 45.8 µM in the assay on HOP-62 NSCLC; 20.5 µM in the assay on KM12 colon. Besides, the TGI was determined as 31.6 µM in the assay on NCI-H460 lung, 26.8 µM in the assay with SF-539 CNS, 3.86 µM in the assay with SK-MEL-28 melanoma and 29.9 µM in the assay on SK-OV-3 ovarian.

Source of the values: PubChem BioAssay (NCI).
